Patent publication US20260262643A1, “HERBICIDAL BENZOXAZINES” (FMC CORPORATION, priority 2022, published 2026)

Key:
horseweed = test: Test C postemergence; type: in vivo, Erigeron canadensis; conditions: 10 days
How it was run: (§1)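 Seeds in loam–sand blend received preemergence directed soil spray of test chemicals in non-phytotoxic solvent with surfactant; postemergence treatment was applied at one- to two-leaf stage (2–10 cm). After 10 days in greenhouse, injury rated visually versus untreated controls, 0 (no effect) to 100 (complete control).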

soybean [1] = test: Test C preemergence; type: in vivo, Glycine max; conditions: 0 to 100 scale (0 no effect, 100 complete control); for Plant response rating, Soybean: Preemergence, 500 g ai/ha, visual rating after 10 days; for Soybean plant response rating: Test C, preemergence, 125 g ai/ha
How it was run: as §1

corn [2] = test: Test C preemergence; type: in vivo, Zea mays; conditions: 0 to 100 scale (0 no effect, 100 complete control); for Plant response rating, Corn: Preemergence, 500 g ai/ha, visual rating after 10 days; for Corn plant response rating: Test C, preemergence, 125 g ai/ha
How it was run: as §1

pigweed, palmer [3] = test: Test C postemergence; type: in vivo, Amaranthus palmeri; conditions: 10 days
How it was run: as §1

barnyardgrass [4] = test: Test C postemergence; type: in vivo, Echinochloa crusgalli; conditions: 10 days
How it was run: as §1

rice = test: Test D flooded paddy test; type: in vivo, Oryza sativa; conditions: 250 g ai/ha, applied to paddy water, visual rating after 13 to 14 days, scale 0 to 100 (0 no effect, 100 complete control)
How it was run: (§2)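 Seedlings reached the 2-leaf stage, then pots were flooded to 3 cm over the soil surface. Compound was applied into the water, depth was maintained, and plants stayed in the greenhouse 13 to 14 days before visual scoring (0–100) relative to controls.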

green foxtail [5] = test: Test C preemergence; type: in vivo, Setaria viridis; conditions: 0 to 100 scale (0 no effect, 100 complete control); for Plant response rating, Foxtail, Green: Preemergence, 500 g ai/ha, visual rating after 10 days; for Foxtail, Green plant response rating: Test C, preemergence, 125 g ai/ha
How it was run: as §1

kochia [6] = test: Test C preemergence; type: in vivo, Bassia scoparia; conditions: 0 to 100 scale (0 no effect, 100 complete control); for Plant response rating, Kochia: Preemergence, 500 g ai/ha, visual rating after 10 days; for Kochia plant response rating: Test C, preemergence, 125 g ai/ha
How it was run: as §1

oat, wild [7] = test: Test C postemergence; type: in vivo, Avena fatua; conditions: 10 days
How it was run: as §1

ryegrass, Italian [8] = test: Test C postemergence; type: in vivo, Lolium multiflorum; conditions: 10 days
How it was run: as §1

wheat [9] = test: Test C preemergence; type: in vivo, Triticum aestivum; conditions: 0 to 100 scale (0 no effect, 100 complete control); for Plant response rating, Wheat: Preemergence, 500 g ai/ha, visual rating after 10 days; for Wheat plant response rating: Test C, preemergence, 125 g ai/ha
How it was run: as §1

oat, wild [10] = test: Test C preemergence; type: in vivo, Avena fatua; conditions: 0 to 100 scale (0 no effect, 100 complete control); for Plant response rating, Oat, Wild: Preemergence, 500 g ai/ha, visual rating after 10 days; for Oat, Wild plant response rating: Test C, preemergence, 125 g ai/ha
How it was run: as §1

pigweed, palmer [11] = test: Test C preemergence; type: in vivo, Amaranthus palmeri; conditions: 0 to 100 scale (0 no effect, 100 complete control); for Plant response rating, Pigweed, Palmer: Preemergence, 500 g ai/ha, visual rating after 10 days; for Pigweed, Palmer plant response rating: Test C, preemergence, 125 g ai/ha
How it was run: as §1

ragweed [12] = test: Test C postemergence; type: in vivo, Ambrosia artemisiifolia; conditions: 10 days
How it was run: as §1

blackgrass [13] = test: Test C preemergence; type: in vivo, Alopecurus myosuroides; conditions: 0 to 100 scale (0 no effect, 100 complete control); for Plant response rating, Blackgrass: Preemergence, 500 g ai/ha, visual rating after 10 days; for Blackgrass plant response rating: Test C, preemergence, 125 g ai/ha
How it was run: as §1

ragweed [14] = test: Test C preemergence; type: in vivo, Ambrosia artemisiifolia; conditions: 0 to 100 scale (0 no effect, 100 complete control); for Plant response rating, Ragweed: Preemergence, 500 g ai/ha, visual rating after 10 days; for Ragweed plant response rating: Test C, preemergence, 125 g ai/ha
How it was run: as §1

sedge, umbrella = test: Test D flooded paddy test; type: in vivo, Cyperus difformis; conditions: 250 g ai/ha, applied to paddy water, visual rating after 13 to 14 days, scale 0 to 100 (0 no effect, 100 complete control)
How it was run: as §2

green foxtail [15] = test: Test C postemergence; type: in vivo, Setaria viridis; conditions: 10 days
How it was run: as §1

corn [16] = test: Test C postemergence; type: in vivo, Zea mays; conditions: 10 days
How it was run: as §1

wheat [17] = test: Test C postemergence; type: in vivo, Triticum aestivum; conditions: 10 days
How it was run: as §1

soybean [18] = test: Test C postemergence; type: in vivo, Glycine max; conditions: 10 days
How it was run: as §1

ducksalad = test: Test D flooded paddy test; type: in vivo, Heteranthera limosa; conditions: 250 g ai/ha, applied to paddy water, visual rating after 13 to 14 days, scale 0 to 100 (0 no effect, 100 complete control)
How it was run: as §2

barnyardgrass [19] = test: Test D flooded paddy test; type: in vivo, Echinochloa crus-galli; conditions: 250 g ai/ha, applied to paddy water, visual rating after 13 to 14 days, scale 0 to 100 (0 no effect, 100 complete control)
How it was run: as §2

barnyardgrass [20] = test: Test C preemergence; type: in vivo, Echinochloa crusgalli; conditions: 0 to 100 scale (0 no effect, 100 complete control); for Plant response rating, Barnyardgrass: Preemergence, 500 g ai/ha, visual rating after 10 days; for Barnyardgrass plant response rating: Test C, preemergence, 125 g ai/ha
How it was run: as §1

ryegrass, Italian [21] = test: Test C preemergence; type: in vivo, Lolium multiflorum; conditions: 0 to 100 scale (0 no effect, 100 complete control); for Plant response rating, Ryegrass, Italian: Preemergence, 500 g ai/ha, visual rating after 10 days; for Ryegrass, Italian plant response rating: Test C, preemergence, 125 g ai/ha
How it was run: as §1

blackgrass [22] = test: Test C postemergence; type: in vivo, Alopecurus myosuroides; conditions: 10 days
How it was run: as §1

kochia [23] = test: Test C postemergence; type: in vivo, Bassia scoparia; conditions: 10 days
How it was run: as §1

[24] = 125 g ai/ha, postemergence, 0 to 100 scale, 0 no effect, 100 complete control
[25] = Postemergence, 500 g ai/ha, visual 0 to 100 scale (0 no effect, 100 complete control)

Structure (SMILES): CCc1ncn(-c2ccc(OC)c(C(=O)N3C[C@H](C)Oc4c(C)cccc43)c2)n1 [Compound 211]
- Plant response rating, Horseweed (horseweed; [24]): 80
- Plant response rating, Horseweed (horseweed; [25]): 90
- Plant response rating, Soybean (soybean [1]): 100
- Soybean plant response rating (soybean [1]): 100
- Plant response rating, Corn (corn [2]): 70
- Corn plant response rating (corn [2]): 70
- Plant response rating, Pigweed, Palmer (pigweed, palmer [3]; [24]): 90
- Plant response rating, Pigweed, Palmer (pigweed, palmer [3]; [25]): 100
- Plant response rating, Barnyardgrass (barnyardgrass [4]; [24]): 80
- Plant response rating, Barnyardgrass (barnyardgrass [4]; [25]): 100
- Plant response rating, Rice (Flood) (rice): 50
- Plant response rating, Foxtail, Green (green foxtail [5]): 100
- Foxtail, Green plant response rating (green foxtail [5]): 0
- Plant response rating, Kochia (kochia [6]): 100
- Kochia plant response rating (kochia [6]): 100
- Plant response rating, Oat, Wild (oat, wild [7]; [24]): 70
- Plant response rating, Oat, Wild (oat, wild [7]; [25]): 90
- Plant response rating, Ryegrass, Italian (ryegrass, Italian [8]; [24]): 70
- Plant response rating, Ryegrass, Italian (ryegrass, Italian [8]; [25]): 90
- Plant response rating, Wheat (wheat [9]): 80
- Wheat plant response rating (wheat [9]): 80
- Plant response rating, Oat, Wild (oat, wild [10]): 90
- Oat, Wild plant response rating (oat, wild [10]): 70
- Plant response rating, Pigweed, Palmer (pigweed, palmer [11]): 100
- Pigweed, Palmer plant response rating (pigweed, palmer [11]): 100
- Plant response rating, Ragweed (ragweed [12]; [24]): 50
- Plant response rating, Ragweed (ragweed [12]; [25]): 70
- Plant response rating, Blackgrass (blackgrass [13]): 90
- Blackgrass plant response rating (blackgrass [13]): 90
- Plant response rating, Ragweed (ragweed [14]): 100
- Ragweed plant response rating (ragweed [14]): 100
- Plant response rating, Sedge, Umbrella (Flood) (sedge, umbrella): 100
- Plant response rating, Foxtail, Green (green foxtail [15]; [24]): 90
- Plant response rating, Foxtail, Green (green foxtail [15]; [25]): 90
- Plant response rating, Corn (corn [16]; [24]): 70
- Plant response rating, Corn (corn [16]; [25]): 90
- Plant response rating, Wheat (wheat [17]; [24]): 70
- Plant response rating, Wheat (wheat [17]; [25]): 90
- Plant response rating, Soybean (soybean [18]; [24]): 100
- Plant response rating, Soybean (soybean [18]; [25]): 100
- Plant response rating, Ducksalad (Flood) (ducksalad): 100
- Plant response rating, Barnyardgrass (Flood) (barnyardgrass [19]): 55
- Plant response rating, Barnyardgrass (barnyardgrass [20]): 100
- Barnyardgrass plant response rating (barnyardgrass [20]): 100
- Plant response rating, Ryegrass, Italian (ryegrass, Italian [21]): 100
- Ryegrass, Italian plant response rating (ryegrass, Italian [21]): 100
- Plant response rating, Blackgrass (blackgrass [22]; [24]): 90
- Plant response rating, Blackgrass (blackgrass [22]; [25]): 100
- Plant response rating, Kochia (kochia [23]; [24]): 70
- Plant response rating, Kochia (kochia [23]; [25]): 90

Structure (SMILES): COc1cc(C(=O)N2C[C@H](C)Oc3c(Cl)cccc32)cc(-n2cnc(C3CCC3)n2)c1 [Compound 214]
- Plant response rating, Horseweed (horseweed; [24]): 0
- Plant response rating, Horseweed (horseweed; [25]): 40
- Plant response rating, Soybean (soybean [1]): 80
- Soybean plant response rating (soybean [1]): 30
- Plant response rating, Corn (corn [2]): 20
- Corn plant response rating (corn [2]): 10
- Plant response rating, Pigweed, Palmer (pigweed, palmer [3]; [24]): 100
- Plant response rating, Pigweed, Palmer (pigweed, palmer [3]; [25]): 100
- Plant response rating, Barnyardgrass (barnyardgrass [4]; [24]): 20
- Plant response rating, Barnyardgrass (barnyardgrass [4]; [25]): 20
- Plant response rating, Rice (Flood) (rice): 0
- Plant response rating, Foxtail, Green (green foxtail [5]): 100
- Foxtail, Green plant response rating (green foxtail [5]): 100
- Plant response rating, Kochia (kochia [6]): 100
- Kochia plant response rating (kochia [6]): 90
- Plant response rating, Oat, Wild (oat, wild [7]; [24]): 20
- Plant response rating, Oat, Wild (oat, wild [7]; [25]): 20
- Plant response rating, Ryegrass, Italian (ryegrass, Italian [8]; [24]): 20
- Plant response rating, Ryegrass, Italian (ryegrass, Italian [8]; [25]): 40
- Plant response rating, Wheat (wheat [9]): 30
- Wheat plant response rating (wheat [9]): 10
- Plant response rating, Oat, Wild (oat, wild [10]): 80
- Oat, Wild plant response rating (oat, wild [10]): 0
- Plant response rating, Pigweed, Palmer (pigweed, palmer [11]): 100
- Pigweed, Palmer plant response rating (pigweed, palmer [11]): 100
- Plant response rating, Ragweed (ragweed [12]; [24]): 40
- Plant response rating, Ragweed (ragweed [12]; [25]): 40
- Plant response rating, Blackgrass (blackgrass [13]): 70
- Blackgrass plant response rating (blackgrass [13]): 20
- Plant response rating, Ragweed (ragweed [14]): 0
- Ragweed plant response rating (ragweed [14]): 10
- Plant response rating, Sedge, Umbrella (Flood) (sedge, umbrella): 90
- Plant response rating, Foxtail, Green (green foxtail [15]; [24]): 30
- Plant response rating, Foxtail, Green (green foxtail [15]; [25]): 80
- Plant response rating, Corn (corn [16]; [24]): 60
- Plant response rating, Corn (corn [16]; [25]): 70
- Plant response rating, Wheat (wheat [17]; [24]): 20
- Plant response rating, Wheat (wheat [17]; [25]): 30
- Plant response rating, Soybean (soybean [18]; [24]): 100
- Plant response rating, Soybean (soybean [18]; [25]): 100
- Plant response rating, Ducksalad (Flood) (ducksalad): 70
- Plant response rating, Barnyardgrass (Flood) (barnyardgrass [19]): 0
- Plant response rating, Barnyardgrass (barnyardgrass [20]): 100
- Barnyardgrass plant response rating (barnyardgrass [20]): 50
- Plant response rating, Ryegrass, Italian (ryegrass, Italian [21]): 90
- Ryegrass, Italian plant response rating (ryegrass, Italian [21]): 80
- Plant response rating, Blackgrass (blackgrass [22]; [24]): 0
- Plant response rating, Blackgrass (blackgrass [22]; [25]): 80
- Plant response rating, Kochia (kochia [23]; [24]): 70
- Plant response rating, Kochia (kochia [23]; [25]): 100
